ChEMBL document CHEMBL3596163, “Discovery of imidazo[1,5-a]pyridines and -pyrimidines as potent and selective RORc inverse agonists” (Bioorg Med Chem Lett, 2015)

How the values were obtained:
[1] = target: T1, Nuclear receptor ROR-gamma (Homo sapiens, UniProt P51449); assay: Inverse agonist activity at N-terminal 6xHis-tagged human RORc ligand binding domain (241 to 486) expressed in bacterial expression system assessed as inhibition of SRC1 co-activator peptide recruitment after 3 hrs by TR-FRET analysis; type: functional
T1 sequence (P51449 whole entry): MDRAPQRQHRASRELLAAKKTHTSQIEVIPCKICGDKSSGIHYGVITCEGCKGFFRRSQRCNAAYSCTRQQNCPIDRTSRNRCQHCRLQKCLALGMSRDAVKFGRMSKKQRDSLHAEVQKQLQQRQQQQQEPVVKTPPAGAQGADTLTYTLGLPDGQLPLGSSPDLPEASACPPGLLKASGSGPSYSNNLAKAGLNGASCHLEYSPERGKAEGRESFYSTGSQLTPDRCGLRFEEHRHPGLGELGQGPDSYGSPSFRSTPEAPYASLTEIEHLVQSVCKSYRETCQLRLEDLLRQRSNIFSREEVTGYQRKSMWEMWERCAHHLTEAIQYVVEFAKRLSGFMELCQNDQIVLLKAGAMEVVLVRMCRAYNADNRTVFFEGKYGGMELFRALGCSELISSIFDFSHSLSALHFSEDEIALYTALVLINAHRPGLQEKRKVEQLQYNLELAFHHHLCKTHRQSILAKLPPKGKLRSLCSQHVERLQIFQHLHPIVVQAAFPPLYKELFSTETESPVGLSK

[2] = Lipophilicity, log D of the compound at pH 7.4; type: physicochemical; conditions: buffer
[3] = target: T2, Peroxisome proliferator-activated receptor gamma (Homo sapiens, UniProt P37231); assay: Displacement of fluormone PPARgamma green from GST-tagged human PPARgamma-LBD after 2 hrs by fluorescence polarization assay
T2 sequence (P37231 whole entry): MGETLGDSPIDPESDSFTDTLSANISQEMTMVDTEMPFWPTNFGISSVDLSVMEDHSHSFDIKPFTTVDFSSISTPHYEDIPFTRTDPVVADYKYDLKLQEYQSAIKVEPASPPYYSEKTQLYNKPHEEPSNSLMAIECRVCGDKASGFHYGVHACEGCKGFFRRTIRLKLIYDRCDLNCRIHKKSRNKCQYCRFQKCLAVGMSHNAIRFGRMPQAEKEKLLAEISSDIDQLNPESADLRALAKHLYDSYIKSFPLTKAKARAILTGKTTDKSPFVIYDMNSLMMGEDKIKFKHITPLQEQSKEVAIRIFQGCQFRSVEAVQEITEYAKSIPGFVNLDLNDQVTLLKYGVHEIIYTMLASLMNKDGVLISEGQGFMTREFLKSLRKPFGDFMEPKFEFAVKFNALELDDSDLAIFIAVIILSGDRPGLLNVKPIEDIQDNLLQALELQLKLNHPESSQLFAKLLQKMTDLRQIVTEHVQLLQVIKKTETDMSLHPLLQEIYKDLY

| Structure (SMILES) | EC50 [1] | logD [2] | IC50 [3] |
| --- | --- | --- | --- |
| O=C(c1c(Cl)cccc1C(F)(F)F)c1nc([C@H]2CC[C@H](C(=O)O)CC2)c2ccccn12 | 400 nM | 1.3 |  |
| O=C(O)c1ccc(-c2nc(C(=O)c3c(Cl)cccc3C(F)(F)F)n3cccnc23)cc1 | 84 nM | 0.3 | 4200 nM |
| O=C(O)c1ccc(-c2nc(C(=O)c3c(Cl)cccc3Cl)n3c2CCCC3)c(F)c1 | 77 nM | 1.5 | 1100 nM |
| COc1cccc(Cl)c1C(=O)c1nc(-c2ccc(C(=O)O)cc2F)c2n1CCCC2 | 240 nM | 0.8 | 5500 nM |
| O=C(O)c1ccc(-c2nc(C(=O)c3c(F)cccc3Cl)n3c2CCCC3)c(F)c1 | 190 nM | 1.2 | 2900 nM |
| N#Cc1cccc(C(F)(F)F)c1C(=O)c1nc(-c2ccc(C(=O)O)cc2F)c2n1CCCC2 | 220 nM | 0.7 | > 10000 nM |
| O=C(c1c(Cl)cccc1C(F)(F)F)c1nc(N2CCC(O)(C(=O)O)CC2)c2ccccn12 | 6800 nM |  |  |
| O=C(c1c(Cl)cccc1C(F)(F)F)c1nc(N2CC[C@@H](C(=O)O)[C@H](O)C2)c2ccccn12 (stereo in doubt) | 97 nM | 0.4 | > 10000 nM |
| O=C(O)c1ccc(-n2nc(C(=O)c3c(Cl)cccc3C(F)(F)F)c3c2CCCC3)cc1 | > 10000 nM | -0.3 |  |
| O=C(c1c(Cl)cccc1C(F)(F)F)c1nc(N2CCC(C(=O)O)CC2)c2ccccn12 | 540 nM | 0.4 | > 10000 nM |
| O=C(O)c1ccc(-c2cn3c(n2)C(c2c(Cl)cccc2C(F)(F)F)OCC3)cc1 (centres undefined) | > 10000 nM |  |  |
| N#Cc1cccc(Cl)c1C(=O)c1nc(-c2ccc(C(=O)O)cc2F)c2n1CCCC2 | 250 nM | 0.7 | 7700 nM |
| O=C(O)c1ccc(-c2nn(C(=O)c3c(Cl)cccc3C(F)(F)F)c3ccccc23)cc1 |  | 2.9 |  |
| O=C(c1c(Cl)cccc1C(F)(F)F)c1nc(C2=CCC(C(=O)O)CC2)c2ccccn12 (centres undefined) | 100 nM | 1.5 | 1800 nM |
| O=C(c1c(Cl)cccc1C(F)(F)F)c1nc([C@H]2CC[C@@H](C(=O)O)CC2)c2ccccn12 | 4300 nM | 1.8 |  |
| O=C(O)c1ccc(-c2nc(C(=O)c3c(Cl)cccc3C(F)(F)F)n3ccncc23)cc1 | 2600 nM | 0.7 |  |
| O=C(O)c1ccc(-c2nc(C(=O)c3c(Cl)cccc3C(F)(F)F)n3c2CCCC3)cc1 | 58 nM | 0.8 | 2100 nM |
| O=C(c1c(Cl)cccc1C(F)(F)F)c1nc(N2CC[C@H](C(=O)O)[C@@H](O)C2)c2ccccn12 (stereo in doubt) | 440 nM | 0.3 | > 10000 nM |
| COc1cccc(C(F)(F)F)c1C(=O)c1nc(-c2ccc(C(=O)O)cc2F)c2n1CCCC2 | 670 nM |  | 9100 nM |
| O=C(O)c1ccc(-c2nc(C(=O)c3ccccc3C(F)(F)F)n3c2CCCC3)c(F)c1 | 840 nM | 1.4 | 5600 nM |
